{"source": "patent US20240269139A1", "about": "“COMPOUNDS FOR TARGETED PROTEIN DEGRADATION OF KINASES” (DANA-FARBER CANCER INSTITUTE, INC., priority 2020, published 2024)", "key": {"[1]": {"target": "protein kinases (human kinome) (Homo sapiens, UniProt P54819)", "format": "cell-based", "conditions": "AK2 (P54819)"}, "[2]": {"target": "T1, protein kinases (human kinome) (Homo sapiens, UniProt Q9UIG0)", "T1 sequence (Q9UIG0 1-1483)": "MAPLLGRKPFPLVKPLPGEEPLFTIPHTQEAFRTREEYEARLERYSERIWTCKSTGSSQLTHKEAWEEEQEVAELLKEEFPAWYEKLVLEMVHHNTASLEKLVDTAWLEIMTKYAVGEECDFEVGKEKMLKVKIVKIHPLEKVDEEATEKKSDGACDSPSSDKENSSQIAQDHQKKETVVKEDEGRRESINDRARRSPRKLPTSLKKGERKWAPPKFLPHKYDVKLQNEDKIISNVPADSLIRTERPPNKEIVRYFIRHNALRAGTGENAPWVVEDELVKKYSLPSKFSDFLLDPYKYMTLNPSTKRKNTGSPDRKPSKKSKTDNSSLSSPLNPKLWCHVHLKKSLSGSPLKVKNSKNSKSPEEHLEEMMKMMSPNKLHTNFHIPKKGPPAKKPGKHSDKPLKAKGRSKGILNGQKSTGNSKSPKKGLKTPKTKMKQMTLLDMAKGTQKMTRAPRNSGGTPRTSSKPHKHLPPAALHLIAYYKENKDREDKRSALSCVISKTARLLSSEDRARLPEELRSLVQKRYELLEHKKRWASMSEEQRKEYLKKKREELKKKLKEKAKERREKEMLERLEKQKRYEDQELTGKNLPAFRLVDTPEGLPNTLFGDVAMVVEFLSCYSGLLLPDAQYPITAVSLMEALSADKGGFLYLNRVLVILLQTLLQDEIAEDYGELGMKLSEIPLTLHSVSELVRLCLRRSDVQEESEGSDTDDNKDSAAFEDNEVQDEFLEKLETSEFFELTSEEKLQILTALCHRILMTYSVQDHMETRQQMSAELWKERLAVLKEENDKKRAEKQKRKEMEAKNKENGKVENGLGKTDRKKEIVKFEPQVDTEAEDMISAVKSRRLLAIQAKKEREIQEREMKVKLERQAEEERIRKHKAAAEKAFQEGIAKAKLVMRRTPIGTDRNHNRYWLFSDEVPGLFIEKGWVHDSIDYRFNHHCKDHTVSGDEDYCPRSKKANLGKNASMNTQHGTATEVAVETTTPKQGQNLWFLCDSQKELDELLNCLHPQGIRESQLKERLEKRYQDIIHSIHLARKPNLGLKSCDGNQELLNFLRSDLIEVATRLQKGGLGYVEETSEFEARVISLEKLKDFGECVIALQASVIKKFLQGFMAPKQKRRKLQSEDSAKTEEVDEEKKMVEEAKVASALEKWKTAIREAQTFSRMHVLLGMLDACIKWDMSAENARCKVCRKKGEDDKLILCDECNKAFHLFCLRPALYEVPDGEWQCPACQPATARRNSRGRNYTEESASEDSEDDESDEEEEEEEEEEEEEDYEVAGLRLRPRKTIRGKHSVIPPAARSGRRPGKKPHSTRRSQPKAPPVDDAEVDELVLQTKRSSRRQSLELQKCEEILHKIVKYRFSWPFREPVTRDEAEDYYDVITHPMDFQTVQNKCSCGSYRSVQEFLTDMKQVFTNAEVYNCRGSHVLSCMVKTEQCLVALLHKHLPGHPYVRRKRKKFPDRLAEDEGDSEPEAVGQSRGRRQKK", "format": "cell-based", "conditions": "BAZ1B (Q9UIG0)"}, "[3]": {"target": "protein kinases (human kinome) (Homo sapiens, UniProt Q16659)", "sequence (Q16659 whole entry)": "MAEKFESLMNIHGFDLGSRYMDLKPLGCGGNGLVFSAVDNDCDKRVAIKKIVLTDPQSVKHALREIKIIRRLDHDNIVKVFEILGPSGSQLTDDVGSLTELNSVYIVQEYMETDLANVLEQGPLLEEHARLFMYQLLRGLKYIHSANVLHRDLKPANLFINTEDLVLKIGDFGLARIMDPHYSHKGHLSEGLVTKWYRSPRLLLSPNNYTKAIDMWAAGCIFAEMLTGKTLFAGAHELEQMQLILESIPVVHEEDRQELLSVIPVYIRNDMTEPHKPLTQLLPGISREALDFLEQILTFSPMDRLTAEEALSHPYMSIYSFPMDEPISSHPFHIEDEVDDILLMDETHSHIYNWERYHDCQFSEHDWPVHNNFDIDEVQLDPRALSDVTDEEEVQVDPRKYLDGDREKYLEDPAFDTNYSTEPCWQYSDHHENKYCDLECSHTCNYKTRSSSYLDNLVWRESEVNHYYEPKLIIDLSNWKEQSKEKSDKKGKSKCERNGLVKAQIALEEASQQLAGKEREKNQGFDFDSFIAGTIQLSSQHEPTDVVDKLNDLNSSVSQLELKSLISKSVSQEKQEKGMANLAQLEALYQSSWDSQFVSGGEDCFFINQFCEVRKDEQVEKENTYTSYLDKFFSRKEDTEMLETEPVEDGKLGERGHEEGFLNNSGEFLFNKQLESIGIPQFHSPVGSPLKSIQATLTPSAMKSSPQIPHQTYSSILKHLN", "format": "cell-based"}, "[4]": {"target": "T2, extended human kinome (kinase-like proteins) (Homo sapiens, UniProt Q9UHH9)", "T2 sequence (Q9UHH9 1-426)": "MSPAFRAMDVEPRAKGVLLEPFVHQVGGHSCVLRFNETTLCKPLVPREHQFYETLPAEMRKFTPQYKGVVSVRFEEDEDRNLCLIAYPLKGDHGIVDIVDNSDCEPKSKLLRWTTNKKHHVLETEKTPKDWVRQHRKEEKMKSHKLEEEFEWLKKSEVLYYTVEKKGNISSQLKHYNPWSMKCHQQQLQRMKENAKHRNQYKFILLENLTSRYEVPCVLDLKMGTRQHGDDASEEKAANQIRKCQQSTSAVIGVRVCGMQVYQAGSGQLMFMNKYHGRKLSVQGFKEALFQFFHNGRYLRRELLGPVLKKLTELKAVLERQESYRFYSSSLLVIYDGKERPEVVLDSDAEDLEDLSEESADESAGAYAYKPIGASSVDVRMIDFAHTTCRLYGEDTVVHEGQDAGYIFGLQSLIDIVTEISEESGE", "assay": "Whole cell quantitative proteomics: extended kinome hits", "conditions": "Accession Q9UHH9"}, "[5]": {"conditions": "MAPK6 (Q16659), experiment wp131"}}, "note": "Where two headings read alike, the source gives them in different places.", "data": [{"compound": "CN(C)C(=O)c1cc2cnc(Nc3ccc(N4CCN(CCCCNC(=O)COc5cccc6c5C(=O)N(C5CCC(=O)NC5=O)C6=O)CC4)cn3)nc2n1C1CCCC1", "note": "(stereo not drawn) [BSJ.04.132]", "values": [{"measurement": "logFC", "setting": "[1]; experiment wp084", "result": "−0.3323"}, {"measurement": "logFC", "setting": "[2]; experiment wp084", "result": "−0.3222"}]}, {"compound": "Cc1ncsc1-c1ccc([C@H](C)NC(=O)[C@@H]2C[C@@H](O)CN2C(=O)[C@@H](NC(=O)CCOCCOCCN2CCN(c3ccc(Nc4ncc(Cl)c(Nc5ccccc5S(=O)(=O)C(C)C)n4)cc3)CC2)C(C)(C)C)cc1", "note": "[FMF.06.098.1]", "values": [{"measurement": "logFC", "setting": "[3]; [5]", "result": "−0.4123"}, {"measurement": "logFC MAPK6", "setting": "[3]; [5]", "result": "−0.4123"}]}, {"compound": "C[C@@H]1C[C@@H](O)c2ncnc(N3CCN(C(=O)[C@H](CNCCCCCCCCCCc4cccc5c4C(=O)N(C4CCC(=O)NC4=O)C5=O)c4ccc(Cl)cc4)CC3)c21", "note": "(stereo partly drawn) [INY.03.041.01]", "values": [{"measurement": "logFC", "setting": "[3]; MAPK6 (Q16659), experiment wp118", "result": "−0.6183"}, {"measurement": "logFC MAPKG", "setting": "[3]; MAPKG Q16659, experiment wp118", "result": "−0.6183"}, {"measurement": "logFC IP6K2", "setting": "[4]; experiment wp118", "result": "−0.662"}, {"measurement": "logFC IP6K2", "setting": "[4]; experiment wp135, 4 hr", "result": "−0.3251"}]}, {"compound": "CC(C)S(=O)(=O)c1ccccc1Nc1nc(Nc2ccc(N3CCN(CCOCCOCCNC(=O)CNc4cccc5c4C(=O)N(C4CCC(=O)NC4=O)C5=O)CC3)cc2)ncc1Cl", "note": "(stereo not drawn) [TL12.186]", "values": [{"measurement": "logFC", "setting": "[3]; [5]", "result": "−1.488"}, {"measurement": "logFC", "setting": "[3]; MAPK6 (Q16659), experiment wp131, direction down", "result": "−1.488"}, {"measurement": "logFC IP6K2", "setting": "[4]; experiment wp137", "result": "−0.7538"}]}, {"compound": "Cc1ccc(C(=O)Nc2ccc(CN3CCN(CCCOCCOCCOCCNC(=O)COc4cccc5c4C(=O)N(C4CCC(=O)NC4=O)C5=O)CC3)c(C(F)(F)F)c2)cc1C#Cc1cnc2cccnn12", "note": "(stereo not drawn) [SB1.G.187]", "values": [{"measurement": "logFC", "setting": "[1]; experiment wp056", "result": "−0.3691"}]}, {"compound": "CC(=O)c1c(C)c2cnc(Nc3ccc(N4CCN(CCOCCOCCOCCNC(=O)COc5cccc6c5C(=O)N(C5CCC(=O)NC5=O)C6=O)CC4)cn3)nc2n(C2CCCC2)c1=O", "note": "(stereo not drawn) [BSJ.03.123]", "values": [{"measurement": "logFC", "setting": "[1]; experiment wp084", "result": "−0.395"}, {"measurement": "logFC", "setting": "[2]; experiment wp084", "result": "−0.3532"}]}, {"compound": "Cc1ncsc1-c1ccc([C@H](C)NC(=O)[C@@H]2C[C@@H](O)CN2C(=O)[C@@H](NC(=O)CCCCCN2CCN(c3ccc(Nc4ncc5scc(-c6cccc(NS(C)(=O)=O)c6)c5n4)cc3)CC2)C(C)(C)C)cc1", "note": "[RSS0680, (2S,4R)-1-((S)-3,3-Dimethyl-2-(6-(4-(4-((7-(3-(methylsulfonamido)phenyl)thieno[3,2-d]pyrimidin-2-yl)amino)phenyl)piperazin-1-yl)hexanamido)butanoyl)-4-hydroxy-N—((S)-1-(4-(4-methylthiazol-5yl)phenyl)ethyl)pyrrolidine-2-carboxamide]", "values": [{"measurement": "logFC", "setting": "[3]; MAPK6 Q16659, experiment wp080", "result": "−0.5033"}, {"measurement": "logFC MAPK6", "setting": "[3]; MAPK6 Q16659, experiment wp080", "result": "−0.5033"}, {"measurement": "logFC", "setting": "[2]; experiment wp080", "result": "−0.4061"}]}, {"compound": "CC(C)S(=O)(=O)c1ccccc1Nc1nc(Nc2ccc(N3CCN(CCOCCNC(=O)CNc4cccc5c4C(=O)N(C4CCC(=O)NC4=O)C5=O)CC3)cc2)ncc1Cl", "note": "(stereo not drawn) [SK.3.91]", "values": [{"measurement": "logFC", "setting": "[3]; MAPK6 (Q16659), experiment wp133, 2 hr", "result": "−0.8253"}, {"measurement": "logFC", "setting": "[3]; MAPK6 (Q16659), experiment wp133, 2 hr, direction down", "result": "−0.8253"}, {"measurement": "logFC", "setting": "[3]; MAPK6 (Q16659), experiment wp133, 4 hr", "result": "−1.614"}, {"measurement": "logFC", "setting": "[3]; MAPK6 (Q16659), experiment wp133, 4 hr, direction down", "result": "−1.614"}, {"measurement": "logFC", "setting": "[3]; MAPK6 Q16659, experiment wp103", "result": "−1.525"}, {"measurement": "logFC MAPK6", "setting": "[3]; MAPK6 Q16659, experiment wp103", "result": "−1.525"}, {"measurement": "logFC", "setting": "[3]; MAPK6 Q16659, experiment wp107", "result": "−1.345"}, {"measurement": "logFC MAPK6", "setting": "[3]; MAPK6 Q16659, experiment wp107", "result": "−1.345"}, {"measurement": "logFC IP6K2", "setting": "[4]; experiment wp016, 1 uM", "result": "−0.9368"}, {"measurement": "logFC IP6K2", "setting": "[4]; experiment wp107", "result": "−1.472"}, {"measurement": "logFC IP6K2", "setting": "[4]; experiment wp133, 1 hr", "result": "−0.4547"}, {"measurement": "logFC IP6K2", "setting": "[4]; experiment wp133, 2 hr", "result": "−0.6461"}, {"measurement": "logFC IP6K2", "setting": "[4]; experiment wp133, 4 hr", "result": "−0.9692"}, {"measurement": "logFC IP6K2", "setting": "[4]; experiment wp160, 2 hr", "result": "−0.4937"}, {"measurement": "logFC IP6K2", "setting": "[4]; experiment wp160, 4 hr", "result": "−0.6281"}]}, {"compound": "CC(C)(C)c1nc(-c2cccc(NS(=O)(=O)c3c(F)cccc3F)c2F)c(-c2ccnc(NCCOCCNC(=O)CCOCCOCCNc3cccc4c3CN(C3CCC(=O)NC3=O)C4=O)n2)s1", "note": "(stereo not drawn) [DD.03.107]", "values": [{"measurement": "logFC", "setting": "[2]; experiment wp147, 4 uM", "result": "−0.3418"}]}]}
